In ChEMBL document CHEMBL1155406, “Synthesis and chain-dependent antifungal activity of long-chain 2H-azirine-carboxylate esters related to dysidazirine” (Bioorg Med Chem Lett, 2010):
Activity calls are given as the source filed them. The rule behind the calls is not given here.

Assays:
Cryptococcus neoformans [1] = test: Antifungal activity against Cryptococcus neoformans var. grubii at 64 ug by broth microdilution method; type: functional, organism-based
Candida albicans [2] = test: Antifungal activity against fluconazole-resistant Candida albicans UCD-FRI at 64 ug by broth microdilution method; type: functional, organism-based
Nakaseomyces glabratus [3] = test: Antifungal activity against Candida glabrata at 64 ug by broth microdilution method; type: functional, organism-based
Cryptococcus gattii [4] = test: Antifungal activity against Cryptococcus neoformans var. gatti at 64 ug by broth microdilution method; type: functional, organism-based; conditions: Cryptococcus bacillisporus
Pichia kudriavzevii [5] = test: Antifungal activity against fluconazole-resistant Candida krusei at 64 ug by broth microdilution method; type: functional, organism-based
Candida albicans [6] = test: Antifungal activity against Candida albicans ATCC 14503 at 64 ug by broth microdilution method; type: functional, organism-based
HCT-116 = test: Cytotoxicity against human HCT116 cells; type: cell-based
Candida albicans [7] = test: Antifungal activity against fluconazole-resistant Candida albicans 96-489 at 64 ug by broth microdilution method; type: functional, organism-based
Cryptococcus gattii [8] = test: Antifungal activity against Cryptococcus neoformans var. gatti by broth microdilution method; type: functional, organism-based; conditions: Cryptococcus bacillisporus
Cryptococcus neoformans [9] = test: Antifungal activity against Cryptococcus neoformans var. grubii by broth microdilution method; type: functional, organism-based
Nakaseomyces glabratus [10] = test: Antifungal activity against Candida glabrata by broth microdilution method; type: functional
Pichia kudriavzevii [11] = test: Antifungal activity against fluconazole-resistant Candida krusei by broth microdilution method; type: functional, organism-based
Candida albicans [12] = test: Antifungal activity against Candida albicans ATCC 14503 by broth microdilution method; type: functional, organism-based
Candida albicans [13] = test: Antifungal activity against fluconazole-resistant Candida albicans 96-489 by broth microdilution method; type: functional, organism-based
Candida albicans [14] = test: Antifungal activity against fluconazole-resistant Candida albicans UCD-FRI by broth microdilution method; type: functional, organism-based

Structure (SMILES) | Activity (Cryptococcus neoformans [1]) | Activity (Candida albicans [2]) | Activity (Nakaseomyces glabratus [3]) | Activity (Cryptococcus gattii [4]) | Activity (Pichia kudriavzevii [5]) | Activity (Candida albicans [6]) | Activity (HCT-116) | Activity (Candida albicans [7]) | Activity (Cryptococcus gattii [8]) | Activity (Cryptococcus neoformans [9]) | Activity (Nakaseomyces glabratus [10]) | Activity (Pichia kudriavzevii [11]) | Activity (Candida albicans [12]) | Activity (Candida albicans [13]) | Activity (Candida albicans [14])
COC(=O)[C@H]1N=C1/C=C/CCCCCCCCC/C=C(/Cl)Br | inactive | inactive | inactive | inactive | inactive | inactive | Active | inactive |  |  |  |  |  |  | 
CCCCCCCCCC/C=C\C1=N[C@H]1C(=O)OC |  |  |  |  |  |  |  |  | Active | Active | Active | Active | Active | Active | Active
COC(=O)[C@@H]1N=C1/C=C\CCCCCCCCCCCC(C)(C)C | inactive | inactive | inactive | inactive | inactive | inactive |  | inactive |  |  |  |  |  |  | 
COC(=O)[C@H]1N=C1/C=C\CCCCCCCCCC=C(Br)Br | inactive | inactive | inactive | inactive | inactive | inactive | Active | inactive |  |  |  |  |  |  | 
CCCCCCCCCCCCCCCC1=N[C@H]1C(=O)OC | inactive | inactive | inactive | inactive | inactive | inactive |  | inactive |  |  |  |  |  |  | 
COC(=O)[C@H]1N=C1/C=C/CCCCCCCCCC=C(Br)Br | inactive | inactive | inactive | inactive | inactive | inactive | Active | inactive |  |  |  |  |  |  | 
COC(=O)[C@H]1N=C1/C=C/CCCCCCCCCC=C(Cl)Cl | inactive | inactive | inactive | inactive | inactive | inactive | Active | inactive |  |  |  |  |  |  | 
CCCCCCCCCCCCC/C=C/[C@@H](O)[C@@H](N)CO [SPHINGOSINE] |  |  |  |  |  |  |  |  |  |  | 30 µg/mL |  |  |  | 
CCCCC/C=C\C1=N[C@H]1C(=O)OC |  |  |  |  |  |  |  |  |  |  |  |  |  |  | inactive
COC(=O)[C@H]1N=C1/C=C\CCCCCCCCC/C=C(/Cl)Br | inactive | inactive | inactive | inactive | inactive | inactive | Active | inactive |  |  |  |  |  |  | 
CCCCCCCCCCCCCC#CC1=N[C@H]1C(=O)OC |  |  |  |  |  |  |  |  | Active | Active | Active | Active | Active | Active | Active
